We go through twelve compounds from ChEMBL document CHEMBL5104167, “Development and profiling of mGlu7 NAMs with a range of saturable inhibition of agonist responses in vitro” (Bioorg Med Chem Lett, 2022).

The nature of data set [1]: Ratio of drug level in brain to plasma in rat. It counts as ADME, cell-free.
For data set [2], the target named is Metabotropic glutamate receptor 7 (Rattus norvegicus, UniProt P35400). Briefly: Negative allosteric modulation of rat mGlu7 in HEK cells expressing Galpha15 assessed as inhibition of L-AP4-induced response measured by calcium mobilization assay. The class given is functional, cell-based. (In general: Calcium assays in cells follow changes in intracellular calcium, usually with a dye or a luminescent sensor.)

For data set [3], the target named is T1, Metabotropic glutamate receptor 7 (Homo sapiens, UniProt Q14831).
In data set [4] the target is T1, Metabotropic glutamate receptor 7. This is another data set of the same source.
Data set [5] in a line: Drug concentration in rat brain assessed as unbound fraction. The class given is ADME, tissue-based.
Data set [6] is described as follows: Plasma protein binding in rat assessed as unbound fraction. The class given is ADME, cell-free.
Setting [7] is: filed as negative allosteric modulator.

What is called Kp is tissue or fluid exposure divided by exposure in the circulation. In general, IC50 refers to the midpoint of a concentration-inhibition curve. The fraction unbound is free concentration divided by total concentration.

T1 sequence (Q14831 whole entry): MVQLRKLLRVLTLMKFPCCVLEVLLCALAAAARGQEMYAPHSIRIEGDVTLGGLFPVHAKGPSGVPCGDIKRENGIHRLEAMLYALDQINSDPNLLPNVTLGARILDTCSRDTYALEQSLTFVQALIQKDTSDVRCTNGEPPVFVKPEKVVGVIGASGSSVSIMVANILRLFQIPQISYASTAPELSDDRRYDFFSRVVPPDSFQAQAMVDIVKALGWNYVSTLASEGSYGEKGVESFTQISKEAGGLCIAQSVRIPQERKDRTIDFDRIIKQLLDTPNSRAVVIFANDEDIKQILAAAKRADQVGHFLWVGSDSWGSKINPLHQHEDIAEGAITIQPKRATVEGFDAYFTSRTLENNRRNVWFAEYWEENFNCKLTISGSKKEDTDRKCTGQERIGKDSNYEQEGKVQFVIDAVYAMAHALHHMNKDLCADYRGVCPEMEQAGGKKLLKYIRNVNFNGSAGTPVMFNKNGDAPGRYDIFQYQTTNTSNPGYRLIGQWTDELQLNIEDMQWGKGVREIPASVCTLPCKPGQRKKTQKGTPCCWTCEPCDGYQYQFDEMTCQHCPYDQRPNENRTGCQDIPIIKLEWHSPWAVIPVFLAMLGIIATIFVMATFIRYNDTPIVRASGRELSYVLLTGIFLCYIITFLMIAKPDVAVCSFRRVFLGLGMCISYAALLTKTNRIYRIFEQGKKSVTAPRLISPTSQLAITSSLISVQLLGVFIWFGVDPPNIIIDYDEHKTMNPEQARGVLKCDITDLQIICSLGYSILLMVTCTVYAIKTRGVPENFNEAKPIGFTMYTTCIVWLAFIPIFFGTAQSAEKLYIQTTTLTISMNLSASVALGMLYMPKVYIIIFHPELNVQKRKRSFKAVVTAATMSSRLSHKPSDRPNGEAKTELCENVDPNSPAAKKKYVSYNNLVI
Metabotropic glutamate receptor 7 (Rattus norvegicus, UniProt P35400), sequence (P35400 whole entry): as the sequence (Q14831 whole entry) above, with R5G, A27V, N454H, S488T, A520S, D578N counted along it

Regarding `COc1cc(C(=O)Nc2cc(OC(F)(F)F)ccc2-n2cncn2)ccc1OCC1CC1`, in data set [1], the Kp was 2.4.

Consider `COc1cc(C(=O)Nc2cc(OC(F)(F)F)ccc2-n2cncn2)ccc1OC1CCC1`, for which the half-inhibitory concentration (IC50) in data set [2] was 1 µM; in data set [3], 3.1 µM. In addition, the Emin in data set [4] is 19%.

As to `COc1ccc(-c2coc(-c3cc(OC(F)(F)F)ccc3-n3cncn3)n2)cc1OC`, in data set [2], the IC50 was > 10 µM. This compound showed an Emin in data set [4] (setting [7]) of 45%.

Regarding `COc1ccc(-c2noc(-c3cc(Cl)cc(F)c3-n3cncn3)n2)c(F)c1OC`, the IC50 in data set [2] was 1 µM. For the same compound, the Emin in data set [4] (setting [7]) came out at 69%.

For `COc1ccc(-c2nnc(-c3cc(OC(F)(F)F)ccc3-n3ccnc3)o2)cc1OC`, in data set [3], the IC50 is 3 µM. The Emin in data set [4] worked out at 0%. The Kp in data set [1] worked out at 4.9.

In the case of `CCOC(=O)c1cnc2c(OC)cccc2c1-c1ccc(-c2cc(F)cnc2OC)nc1`, the results for the IC50 in data set [2] and in data set [3] were 2.4 µM and 4.57 µM, respectively. For the same compound, in data set [4], the Emin was 22.4%.

Take `COc1ccc(-c2nnc(-c3cc(OC(F)(F)F)ccc3-c3cn[nH]c3)o2)cc1OC`: the IC50 is 2 µM in data set [2] and 5.4 µM in data set [3]. The compound further registered an Emin in data set [4] of 26%.

Turning to `COc1ccc(-c2nnc(-c3cc(OC(F)(F)F)ccc3-n3cncn3)o2)cc1OC`, the half-inhibitory concentration (IC50) in data set [2] came to 2 µM; in data set [3], 1.3 µM. Moreover, the Emin in data set [4] (setting [7]) came out at 60%.

For `COc1ccc(-c2noc(-c3cc(Cl)ccc3-n3cncn3)n2)c(F)c1OC`, in data set [2], the IC50 is > 30 µM. In addition, the Emin in data set [4] (setting [7]) worked out at 59%.

Take `COc1ccc(-c2nnc(-c3cc(Cl)ccc3-c3ccnn3C)o2)cc1OC`: the fraction unbound in data set [5] turned out to be 0.009. For the same compound, in data set [6], the Fu is given as 3.9%.

For the compound `COc1ccc(-c2noc(-c3cc(Cl)c(F)cc3-n3cncn3)n2)cc1OC`, the IC50 in data set [2] was > 30 µM. Also, in data set [4] (setting [7]), the Emin worked out at 74%.

With `COc1cc(OCC(=O)Nc2cc(OC(F)(F)F)ccc2-n2cncn2)ccc1OC1COC1`, the figures for the IC50 in data set [2] and in data set [3] were 0.263 µM and 0.819 µM, respectively. The Emin in data set [4] stood at 21.1%.
